Results as given in US6214340A, “Physiologically active substance sulphostin, process for producing the same, and use thereof” (Zaidan Hojin Biseibutsu Kagaku Kenkyu Kai, priority 1997, dated 2001).

Assay: Solubility (physicochemical properties)
Excerpt: The physicochemical properties of the thus obtained physiologically active substance sulphostin are shown below.
4) Solubility: soluble in water and insoluble in lower alcohol, acetone, ethyl acetate, hexane and petroleum ether.

For `NC1CCCN(P(N)(=O)NS(=O)(=O)O)C1=O` (centres unmarked) [sulphostin], which Solubility (in lower alcohol, acetone, ethyl acetate, hexane and petroleum ether) is on record?
The Solubility was “insoluble”.

And the Solubility (in water)?
The Solubility was “soluble”.
